# Assay results from patent publication US20030203819A1, “Synergistically acting herbicidal mixtures” (priority 1998, published 2003).
# Columns and labels:
# Format in all cases: in vivo
# Ipomoea ssp. = assay: Herbicidal action in the greenhouse (post-emergence treatment)
# From the text: (§1) The mixtures according to the invention were applied pre- or post-emergence (foliar treatment). The herbicidal compounds of component B were applied in the formulation in which they are present as commercially available product.
# (§2) Some of the experiments were greenhouse experiments and some were field trials on mini plots (on a site with sandy loam (pH 6.2 to 7.0) or sandy clay (pH 5.0 to 6.7) as the soil).
# (§3) The harmful plants differed with regard to size and developmental state; on average, they were 5 to 20 cm long, depending on the growth habit.
# (§4) The herbicidally active compounds of components A) and B) were applied in succession or jointly, in the latter case in some cases as a tank mix and in some cases as a readymix, in the form of emulsions, aqueous solutions or suspensions, the vehicle being water ([…]). In the case of the field trials, application was effected with the aid of a mobile plot sprayer.
# (§5) The test period extended over 3 to 8 weeks, and the stands were also observed at later points in time.
# (§6) Damage by the herbicidal compositions was evaluated with reference to a scale of 0% to 100% in comparison with untreated control plots. 0 means no damage and 100 means complete destruction of the plants.
# (§7) In these examples, the value E at which only an additive effect of the individual active ingredients is to be expected was calculated by the method of S. R. Colby (Calculating synergistic and antagonistic responses of herbicide combinations, Weeds 15, 20 pp (1967).
# Abutilon theophrasti = assay: as above; details: Ia.33 7.8 g/ha a.s.
# From the text: as §1, §2, §3, §4, §5, §6, §7
# Veronica ssp. = assay: as above
# From the text: as §1, §2, §3, §4, §5, §6, §7
# Echinochloa crus-galli = assay: as above
# From the text: as §1, §2, §3, §4, §5, §6, §7
# Amaranthus retroflexus [1] = assay: as above; details: Amaranthus retroflexus, post-emergence
# From the text: as §1, §2, §3, §4, §5, §6, §7
# Alopecurus myosuroides = assay: as above
# From the text: as §1, §2, §3, §4, §5, §6, §7
# Setaria faberi [2] = assay: as above; details: Ia.33 7.8 g/ha a.s.
# From the text: as §1, §2, §3, §4, §5, §6, §7
# Zea mays = assay: Phytotoxicity to crop plant in the greenhouse (post-emergence treatment); details: Table 84, Ia.33 62.5 g/ha a.s.
# From the text: as §1, §2, §4, §5, §6, §7
# Sorghum halepense = assay: Herbicidal action in the field (post-emergence treatment); details: for Damage (%): Sorghum halepense, field, post-emergence, Ia.33 75 g/ha a.s.
# From the text: as §1, §2, §3, §4, §5, §6, §7
# Ipomoea lacunosa = assay: as above; details: Ia.33 75 g/ha a.s.
# From the text: as §1, §2, §3, §4, §5, §6, §7
# Sorghum bicolor = assay: as above
# From the text: as §1, §2, §3, §4, §5, §6, §7
# Galium aparine = assay: as above; details: Ia.33 1.9 g/ha a.s.
# From the text: as §1, §2, §3, §4, §5, §6, §7
# Panicum miliaceum = assay: as above; details: Ia.33 50 g/ha a.s.
# From the text: as §1, §2, §3, §4, §5, §6, §7
# Setaria faberi [3] = assay: as above; details: Ia.33 75 g/ha a.s.
# From the text: as §1, §2, §3, §4, §5, §6, §7
# Amaranthus retroflexus [4] = assay: as above; details: dicamba 280 g/ha a.s.
# From the text: as §1, §2, §3, §4, §5, §6, §7
# Triticum aestivum = assay: Phytotoxicity to crop plant in the greenhouse (post-emergence treatment); details: Table 83, Dimethenamide 500 g/ha a.s.
# From the text: as §1, §2, §4, §5, §6, §7
# Lolium perenne = assay: Herbicidal action in the field (post-emergence treatment); details: paraquat-dichloride 400 g/ha a.s.
# From the text: as §1, §2, §3, §4, §5, §6, §7
smiles,measurement,setting,value
"Cc1c(C(=O)c2cnn(C)c2O)ccc(S(C)(=O)=O)c1C1=NOCC1 [Ia.33, 4-[2-methyl-3-(4,5-dihydroisoxazol-3-yl)-4-methylsulfonylbenzoyl]-1-methyl-5-hydroxy-1H-pyrazole]",Damage,Ipomoea ssp.; Ia.33 3.9 g/ha a.s.,50%
same,Damage,Ipomoea ssp.; Ia.33 62.5 g/ha a.s.,80%
same,Damage,Abutilon theophrasti,90%
same,Damage,Veronica ssp.; Ia.33 15.6 g/ha a.s.,60%
same,Damage,Veronica ssp.; Ia.33 62.5 g/ha a.s. (Table 18),20%
same,Damage,Veronica ssp.; Ia.33 62.5 g/ha a.s. (Table 51),80%
same,Damage,Echinochloa crus-galli; Ia.33 1.9 g/ha a.s.,55%
same,Damage,Echinochloa crus-galli; Ia.33 15.6 g/ha a.s.,90%
same,pest or weed control at 1.9 g/ha,"Amaranthus retroflexus [1]; read-out: Damage, Ia.33 1.9 g/ha a.s.",30%
same,pest or weed control at 7.8 g/ha,"Amaranthus retroflexus [1]; read-out: Damage, Ia.33 7.8 g/ha a.s.",70%
same,Damage,Alopecurus myosuroides; Ia.33 15.6 g/ha a.s.,40%
same,Damage,Alopecurus myosuroides; Ia.33 62.5 g/ha a.s. (Table 19),40%
same,Damage,Alopecurus myosuroides; Ia.33 62.5 g/ha a.s. (Table 62),40%
same,Damage,Setaria faberi [2],90%
same,Phytotoxicity (%),Zea mays,0%
same,Damage,Sorghum halepense; Ia.33 75 g/ha a.s. (Table 32),78%
same,Damage,Sorghum halepense; Ia.33 75 g/ha a.s. (Table 42),78%
same,Damage (%),Sorghum halepense; Table 78,78%
same,Damage (%),Sorghum halepense; Table 79,78%
same,Damage,Ipomoea lacunosa,69%
same,Damage (%),"Ipomoea lacunosa; Table 81, Ipomoea lacunosa, field, post-emergence",69%
same,Damage,Sorghum bicolor; Ia.33 75 g/ha a.s. (Table 73),78%
same,Damage,Galium aparine,20%
same,Damage,Panicum miliaceum,87%
same,Damage,Setaria faberi [3],65%
same,Damage (%),"Setaria faberi [3]; Table 82, Setaria faberi, field, post-emergence",65%
"COc1c(Cl)ccc(Cl)c1C(=O)O [dicamba, reference compound]",Damage,Amaranthus retroflexus [4],25%
same,Damage,Sorghum bicolor; dicamba 560 g/ha a.s.,17%
COCC(C)N(C(=O)CCl)c1c(C)csc1C (stereo not drawn) [Dimethenamide],Phytotoxicity (%),Triticum aestivum,0%
"C[n+]1ccc(-c2cc[n+](C)cc2)cc1 [paraquat-dichloride, reference compound]",Damage,Lolium perenne,97%
